Measured values as given in patent US20260022142A1, “MACROCYCLIC IMMUNOMODULATORS” (Bristol-Myers Squibb Company, priority 2022, published 2026).
pIC50: −log10 of the molar value. Where two headings read alike, the source gives them in different places. Bridge positions count the residues as written; N and C are the ends. Square brackets hold non-standard residues; d marks the D form. Peptide text beside a SMILES is read from it. * marks the point of attachment. Phe(4-CH2CH2COOH) = N[C@@H](Cc1ccc(CCC(=O)O)cc1)C(=O)O; Trp(βS-Me) = C[C@@H](c1c[nH]c2ccccc12)[C@H](N)C(=O)O; Phe(4-CONH2) = NC(=O)c1ccc(C[C@H](N)C(=O)O)cc1; Phe(4-COOH) = N[C@@H](Cc1ccc(C(=O)O)cc1)C(=O)O; Bip = N[C@@H](Cc1ccc(-c2ccccc2)cc1)C(=O)O; Phe(4-NH2) = Nc1ccc(C[C@H](N)C(=O)O)cc1; Phe(3-F) = N[C@@H](Cc1cccc(F)c1)C(=O)O; Phe(3-Me) = Cc1cccc(C[C@H](N)C(=O)O)c1; Abu(3S-NH2) = C[C@H](N)[C@H](N)C(=O)O; His(π-Me) = Cn1cncc1C[C@H](N)C(=O)O; Val(3-OH) = CC(C)(O)[C@H](N)C(=O)O; Val(3-F) = CC(C)(F)[C@H](N)C(=O)O; 4Pal = N[C@@H](Cc1ccncc1)C(=O)O; Cha = N[C@@H](CC1CCCCC1)C(=O)O; Carboxymethyl = O=C(O)C*; Orn = NCCC[C@H](N)C(=O)O; Aun = NCCCCCCCCCCC(=O)O; Dab = NCC[C@H](N)C(=O)O; Ac3c = NC1(C(=O)O)CC1

Molecular target: T1, PD-1/PD-L1 interaction (PE-labeled human PD-L1-Ig binding to Jurkat cell line over-expressing human PD-1) (Homo sapiens, UniProt Q15116)
T1 construct: expressed in transfected cells; host or cells: Jurkat
T1 sequence (Q15116 25-288): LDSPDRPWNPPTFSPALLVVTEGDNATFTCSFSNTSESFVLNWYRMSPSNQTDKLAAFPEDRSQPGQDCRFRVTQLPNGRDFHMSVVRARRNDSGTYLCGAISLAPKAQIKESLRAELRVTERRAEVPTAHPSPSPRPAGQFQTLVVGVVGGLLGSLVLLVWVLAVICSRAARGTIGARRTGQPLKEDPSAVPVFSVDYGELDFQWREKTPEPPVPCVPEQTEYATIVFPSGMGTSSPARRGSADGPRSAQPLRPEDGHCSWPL
Test: Jurkat-PD-1 Cell Binding High-Content Screening Assay (CBA)
Type: cell-based
Details: PE-labeled PD-L1-Ig 20 nM final
Procedure, shortened: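 Human PD-L1-Ig carrying a covalent PE label on its Ig tag serves as the probe, applied at 20 nM final to compound-treated (2 h, 37° C) Jurkat-hPD-1 cells in medium with 10% fetal calf serum. After one hour, fixation and nuclear staining precede high-content image analysis.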

[1] = Jurkat cell line over-expressing human PD-1, read-out: Jurkat hPD1-PDL1 IC50

Row | Compound | pIC50 [1] | pIC50 (Jurkat hPD1-PDL1 IC50, Jurkat cell line over-expressing human PD-1)
1 | Cc1cccc(C[C@@H]2NC(=O)[C@H](CC(=O)O)NC(=O)[C@H](Cc3ccc(OCC(=O)O)cc3)NC(=O)[C@H](CCCNC(=N)N)NC(=O)CSC[C@@H](C(=O)NC3(C(=O)NCCCCCCCCCCC(=O)O)CC3)NC(=O)[C@H](CCCN)NC(=O)[C@H](C(C)C)NC(=O)[C@H](CC3CCCCC3)NC(=O)[C@H](CCN)NC(=O)[C@@H](CC(C)C)NC(=O)[C@H](CCCN)NC(=O)[C@H](Cc3ccc(OCC(=O)O)cc3)NC(=O)[C@H](Cc3ccc(-c4ccccc4)cc3)NC(=O)[C@H](Cc3ccc(OCC(=O)O)cc3)NC2=O)c1 [Compound 2136] ({CH2CO}-RY(Carboxymethyl)D[Phe(3-Me)]Y(Carboxymethyl)[Bip]Y(Carboxymethyl)[Orn][dL][Dab][Cha]V[Orn]C[Ac3c][Aun]-OH; thioether N-14) | 8.51 | –
2 | Cc1cccc(C[C@@H]2NC(=O)[C@H](CC(=O)O)NC(=O)[C@H](Cc3ccc(OCC(=O)O)cc3)NC(=O)[C@H](CCCNC(=N)N)NC(=O)CSC[C@@H](C(=O)NC3(C(=O)NCCCCCCCCCCC(=O)O)CC3)NC(=O)[C@H](CCC(N)=O)NC(=O)[C@H](C(C)C)NC(=O)[C@H](CC3CCCCC3)NC(=O)[C@H](CCN)NC(=O)[C@@H](CC(C)C)NC(=O)[C@H](CCCN)NC(=O)[C@H](Cc3ccc(OCC(=O)O)cc3)NC(=O)[C@H](Cc3ccc(-c4ccccc4)cc3)NC(=O)[C@H](Cc3ccc(OCC(=O)O)cc3)NC2=O)c1 [Compound 2137] ({CH2CO}-RY(Carboxymethyl)D[Phe(3-Me)]Y(Carboxymethyl)[Bip]Y(Carboxymethyl)[Orn][dL][Dab][Cha]VQC[Ac3c][Aun]-OH; thioether N-14) | 8.04 | –
3 | CC(C)C[C@H]1NC(=O)[C@H](CCCN)NC(=O)[C@H](Cc2ccc(OCC(=O)O)cc2)NC(=O)[C@H](Cc2ccc(-c3ccccc3)cc2)NC(=O)[C@H](Cc2ccc(OCC(=O)O)cc2)NC(=O)[C@H]([C@@H](C)c2c[nH]c3ccccc23)NC(=O)[C@H](CC(=O)O)NC(=O)[C@H](Cc2ccc(OCC(=O)O)cc2)NC(=O)[C@H](CCCNC(=N)N)NC(=O)CSC[C@@H](C(=O)N[C@@H](CCN)C(=O)NCCCCCCCCCCC(=O)O)NC(=O)[C@H]([C@@H](C)O)NC(=O)[C@H](C(C)C)NC(=O)[C@H](CC2CCCCC2)NC(=O)[C@H](CCN)NC1=O [Compound 2138] ({CH2CO}-RY(Carboxymethyl)D[Trp(βS-Me)]Y(Carboxymethyl)[Bip]Y(Carboxymethyl)[Orn][dL][Dab][Cha]VTC[Dab][Aun]-OH; thioether N-14) | 6.96 | –
4 | Cc1cccc(C[C@@H]2NC(=O)[C@H](CC(=O)O)NC(=O)[C@H](Cc3ccc(OCC(=O)O)cc3)NC(=O)[C@H](CCCNC(=N)N)NC(=O)CSC[C@@H](C(=O)N[C@@H](CCN)C(=O)NCCCCCCCCCCC(=O)O)NC(=O)[C@H]([C@@H](C)O)NC(=O)[C@H](C(C)C)NC(=O)[C@H](CC3CCCCC3)NC(=O)[C@H](CCN)NC(=O)[C@@H](CC(C)C)NC(=O)[C@H](C)NC(=O)[C@H](C(C)(C)O)NC(=O)[C@H](Cc3ccc(-c4ccccc4)cc3)NC(=O)[C@H](Cc3ccc(OCC(=O)O)cc3)NC2=O)c1 [Compound 2139] ({CH2CO}-RY(Carboxymethyl)D[Phe(3-Me)]Y(Carboxymethyl)[Bip][Val(3-OH)]A[dL][Dab][Cha]VTC[Dab][Aun]-OH; thioether N-14) | 7.68 | –
5 | Cc1cccc(C[C@@H]2NC(=O)[C@H](CC(=O)O)NC(=O)[C@H](Cc3ccc(OCC(=O)O)cc3)NC(=O)[C@H](CCCNC(=N)N)NC(=O)CSC[C@@H](C(=O)N[C@@H](CCN)C(=O)NCCCCCCCCCCC(=O)O)NC(=O)[C@H](CCC(N)=O)NC(=O)[C@H](C(C)C)NC(=O)[C@H](CC3CCCCC3)NC(=O)[C@H](CCN)NC(=O)[C@@H](CC(C)C)NC(=O)[C@H](CCCN)NC(=O)[C@H](C(C)(C)O)NC(=O)[C@H](Cc3ccc(-c4ccccc4)cc3)NC(=O)[C@H](Cc3ccc(OCC(=O)O)cc3)NC2=O)c1 [Compound 2140] ({CH2CO}-RY(Carboxymethyl)D[Phe(3-Me)]Y(Carboxymethyl)[Bip][Val(3-OH)][Orn][dL][Dab][Cha]VQC[Dab][Aun]-OH; thioether N-14) | 7.94 | –
6 | Cc1cccc(C[C@@H]2NC(=O)[C@H](CC(=O)O)NC(=O)[C@H](Cc3ccc(OCC(=O)O)cc3)NC(=O)[C@H](Cc3cncn3C)NC(=O)CSC[C@@H](C(=O)N[C@@H](CCN)C(=O)NCCCCCCCCCCC(=O)O)NC(=O)[C@H](CO)NC(=O)[C@H](C(C)(C)O)NC(=O)[C@H](CC3CCCCC3)NC(=O)[C@H](CCN)NC(=O)[C@@H](CC(C)C)NC(=O)[C@H](CCCN)NC(=O)[C@H](Cc3ccc(OCC(=O)O)cc3)NC(=O)[C@H](Cc3ccc(-c4ccccc4)cc3)NC(=O)[C@H](Cc3ccc(OCC(=O)O)cc3)NC2=O)c1 [Compound 2141] ({CH2CO}-[His(π-Me)]Y(Carboxymethyl)D[Phe(3-Me)]Y(Carboxymethyl)[Bip]Y(Carboxymethyl)[Orn][dL][Dab][Cha][Val(3-OH)]SC[Dab][Aun]-OH; thioether N-14) | 7.96 | –
7 | Cc1cccc(C[C@@H]2NC(=O)[C@H](CC(=O)O)NC(=O)[C@H](Cc3ccc(OCC(=O)O)cc3)NC(=O)[C@H](Cc3ccncc3)NC(=O)CSC[C@@H](C(=O)N[C@@H](CCN)C(=O)NCCCCCCCCCCC(=O)O)NC(=O)[C@H]([C@H](C)N)NC(=O)[C@H](C(C)(C)O)NC(=O)[C@H](CC3CCCCC3)NC(=O)[C@H](CCN)NC(=O)[C@@H](CC(C)C)NC(=O)[C@H](CCCN)NC(=O)[C@H](Cc3ccc(OCC(=O)O)cc3)NC(=O)[C@H](Cc3ccc(-c4ccccc4)cc3)NC(=O)[C@H](Cc3ccc(OCC(=O)O)cc3)NC2=O)c1 [Compound 2142] ({CH2CO}-[4Pal]Y(Carboxymethyl)D[Phe(3-Me)]Y(Carboxymethyl)[Bip]Y(Carboxymethyl)[Orn][dL][Dab][Cha][Val(3-OH)][Abu(3S-NH2)]C[Dab][Aun]-OH; thioether N-14) | 8.04 | –
8 | Cc1cccc(C[C@@H]2NC(=O)[C@H](CC(=O)O)NC(=O)[C@H](Cc3ccc(C(=O)O)cc3)NC(=O)[C@H](Cc3ccncc3)NC(=O)CSC[C@@H](C(=O)N[C@@H](CCN)C(=O)NCCCCCCCCCCC(=O)O)NC(=O)[C@H]([C@@H](C)O)NC(=O)[C@H](C(C)C)NC(=O)[C@H](CC(C)C)NC(=O)[C@H](CCN)NC(=O)[C@@H](CC(C)C)NC(=O)[C@H](CCCN)NC(=O)[C@H](Cc3ccc(OCC(=O)O)cc3)NC(=O)[C@H](Cc3ccc(-c4ccccc4)cc3)NC(=O)[C@H](Cc3ccc(OCC(=O)O)cc3)NC2=O)c1 [Compound 2143] ({CH2CO}-[4Pal][Phe(4-COOH)]D[Phe(3-Me)]Y(Carboxymethyl)[Bip]Y(Carboxymethyl)[Orn][dL][Dab]LVTC[Dab][Aun]-OH; thioether N-14) | 7.90 | –
9 | Cc1cccc(C[C@@H]2NC(=O)[C@H](CC(=O)O)NC(=O)[C@H](Cc3ccc(CCC(=O)O)cc3)NC(=O)[C@H](CCN)NC(=O)CSC[C@@H](C(=O)N[C@@H](CCN)C(=O)NCCCCCCCCCCC(=O)O)NC(=O)[C@H](CO)NC(=O)[C@H](C(C)(C)O)NC(=O)[C@H](CC3CCCCC3)NC(=O)[C@H](CCN)NC(=O)[C@@H](CC(C)C)NC(=O)[C@H](CCCN)NC(=O)[C@H](Cc3ccc(OCC(=O)O)cc3)NC(=O)[C@H](Cc3ccc(-c4ccccc4)cc3)NC(=O)[C@H](Cc3cccc(F)c3)NC2=O)c1 [Compound 2144] ({CH2CO}-[Dab][Phe(4-CH2CH2COOH)]D[Phe(3-Me)][Phe(3-F)][Bip]Y(Carboxymethyl)[Orn][dL][Dab][Cha][Val(3-OH)]SC[Dab][Aun]-OH; thioether N-14) | 8.14 | –
10 | Cc1cccc(C[C@@H]2NC(=O)[C@H](CC(=O)O)NC(=O)[C@H](Cc3ccc(OCC(=O)O)cc3)NC(=O)[C@H](CCCNC(=N)N)NC(=O)CSC[C@@H](C(=O)N[C@@H](CCN)C(=O)NCCCCCCCCCCC(=O)O)NC(=O)[C@H](CCC(N)=O)NC(=O)[C@H](C(C)(C)F)NC(=O)[C@H](CC3CCCCC3)NC(=O)[C@H](CCN)NC(=O)[C@@H](CC(C)C)NC(=O)[C@H](CCCN)NC(=O)[C@H](Cc3ccc(OCC(=O)O)cc3)NC(=O)[C@H](Cc3ccc(-c4ccccc4)cc3)NC(=O)[C@H](Cc3ccc(OCC(=O)O)cc3)NC2=O)c1 [Compound 2145] ({CH2CO}-RY(Carboxymethyl)D[Phe(3-Me)]Y(Carboxymethyl)[Bip]Y(Carboxymethyl)[Orn][dL][Dab][Cha][Val(3-F)]QC[Dab][Aun]-OH; thioether N-14) | 8.68 | –
11 | Cc1cccc(C[C@@H]2NC(=O)[C@H](CC(=O)O)NC(=O)[C@H](Cc3ccc(OCC(=O)O)cc3)NC(=O)[C@H](Cc3ccc(C(N)=O)cc3)NC(=O)CSC[C@@H](C(=O)N[C@@H](CCN)C(=O)NCCCCCCCCCCC(=O)O)NC(=O)[C@H]([C@@H](C)O)NC(=O)[C@H](C(C)C)NC(=O)[C@H](CC3CCCCC3)NC(=O)[C@H](CCN)NC(=O)[C@@H](CC(C)C)NC(=O)[C@H](CCCN)NC(=O)[C@H](Cc3ccc(OCC(=O)O)cc3)NC(=O)[C@H](Cc3ccc(-c4ccccc4)cc3)NC(=O)[C@H](Cc3ccc(OCC(=O)O)cc3)NC2=O)c1 [Compound 2146] ({CH2CO}-[Phe(4-CONH2)]Y(Carboxymethyl)D[Phe(3-Me)]Y(Carboxymethyl)[Bip]Y(Carboxymethyl)[Orn][dL][Dab][Cha]VTC[Dab][Aun]-OH; thioether N-14) | – | 7.88
12 | Cc1cccc(C[C@@H]2NC(=O)[C@H](CC(=O)O)NC(=O)[C@H](Cc3ccc(OCC(=O)O)cc3)NC(=O)[C@H](Cc3ccc(N)cc3)NC(=O)CSC[C@@H](C(=O)N[C@@H](CCN)C(=O)NCCCCCCCCCCC(=O)O)NC(=O)[C@H]([C@@H](C)O)NC(=O)[C@H](C(C)C)NC(=O)[C@H](CC3CCCCC3)NC(=O)[C@H](CCN)NC(=O)[C@@H](CC(C)C)NC(=O)[C@H](CCCN)NC(=O)[C@H](Cc3ccc(OCC(=O)O)cc3)NC(=O)[C@H](Cc3ccc(-c4ccccc4)cc3)NC(=O)[C@H](Cc3ccc(OCC(=O)O)cc3)NC2=O)c1 [Compound 2147] ({CH2CO}-[Phe(4-NH2)]Y(Carboxymethyl)D[Phe(3-Me)]Y(Carboxymethyl)[Bip]Y(Carboxymethyl)[Orn][dL][Dab][Cha]VTC[Dab][Aun]-OH; thioether N-14) | 7.76 | –
